Inconclusive results and toxic doses are left out. Rule as the data show it: active = T/C of 150% or more; inactive = T/C below 125%.
Tested on: L1210 leukemia ip in BDF1 mice, survival T/C
Experiment: NCI In Vivo Anticancer Drug Screen. Data for tumor model L1210 Leukemia (intraperitoneal) in B6D2F1 (BDF1) mice
Conditions: endpoint: mean survival time, higher = longer survival
Method in brief: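 Tumor was transplanted into mice, which were then dosed with test compound or vehicle alone. Survival was recorded for each group, and the treated figure was expressed relative to the control figure.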

[1] = dose: 100.0 mg/kg/injection, schedule: Q01DX001 (ip), vehicle: carboxymethylcellulose (CMC)
[2] = dose: 200.0 mg/kg/injection, schedule: Q01DX001 (ip), vehicle: carboxymethylcellulose (CMC)
[3] = dose: 400.0 mg/kg/injection, schedule: Q01DX001 (ip), vehicle: carboxymethylcellulose (CMC)
[4] = dose: 100.0 mg/kg/injection, schedule: Q04DX003 (ip), vehicle: Klucel (hydroxypropylcellulose) (HPC)
[5] = dose: 200.0 mg/kg/injection, schedule: Q04DX003 (ip), vehicle: Klucel (hydroxypropylcellulose) (HPC)

Measured: T/C

CN(C)CCC(=O)/C=C\c1ccccc1
inactive: dose: 25.0 mg/kg/injection, schedule: Q01DX009 (ip), vehicle: saline 91 % of control | dose: 25.0 mg/kg/injection, schedule: Q04DX002 (ip), vehicle: saline with Tween-80 105 % of control | dose: 25.0 mg/kg/injection, schedule: Q04DX003 (ip), vehicle: saline 89 % of control | dose: 50.0 mg/kg/injection, schedule: Q01DX009 (ip), vehicle: saline 88 % of control | dose: 50.0 mg/kg/injection, schedule: Q04DX002 (ip), vehicle: saline with Tween-80 98 % of control | dose: 50.0 mg/kg/injection, schedule: Q04DX003 (ip), vehicle: saline 90 % of control | dose: 100.0 mg/kg/injection, schedule: Q01DX009 (ip), vehicle: saline 88 % of control | dose: 100.0 mg/kg/injection, schedule: Q04DX002 (ip), vehicle: saline with Tween-80 88 % of control | dose: 100.0 mg/kg/injection, schedule: Q04DX003 (ip), vehicle: saline 89 % of control

Cc1ccccc1OCC(Cl)CN(C)C (centres undefined)
inactive: dose: 100.0 mg/kg/injection, schedule: Q01DX001 (ip), vehicle: saline 100 % of control | dose: 200.0 mg/kg/injection, schedule: Q01DX001 (ip), vehicle: saline 102 % of control

CC1(O)OC(n2c(Br)nc3c(N)ncnc32)C(O)C1O (centres undefined)
inactive: [1] 103 % of control | [2] 101 % of control | [3] 95 % of control

CC(=O)Nc1cc2c(cc1[N+](=O)[O-])-c1ccc(F)cc1C2
inactive: dose: 50.0 mg/kg/injection, schedule: Q04DX003 (ip), vehicle: Klucel (hydroxypropylcellulose) (HPC) 104 % of control | [1] 94 % of control | [4] 96 % of control | [2] 96 % of control | [5] 100 % of control | [3] 91 % of control

COC1OC2COCOC2C2OCOC12 (centres undefined)
inactive: dose: 50.0 mg/kg/injection, schedule: Q04DX002 (ip), vehicle: Klucel (hydroxypropylcellulose) (HPC) 95 % of control | dose: 100.0 mg/kg/injection, schedule: Q04DX002 (ip), vehicle: Klucel (hydroxypropylcellulose) (HPC) 98 % of control | dose: 200.0 mg/kg/injection, schedule: Q04DX002 (ip), vehicle: Klucel (hydroxypropylcellulose) (HPC) 98 % of control

CCCCC1=C(OCC)C(CCCC)C1=O (centres undefined)
inactive: dose: 10.0 mg/kg/injection, schedule: Q01DX009 (ip), vehicle: Klucel (hydroxypropylcellulose) (HPC) 94 % of control | dose: 20.0 mg/kg/injection, schedule: Q01DX009 (ip), vehicle: Klucel (hydroxypropylcellulose) (HPC) 92 % of control | dose: 40.0 mg/kg/injection, schedule: Q01DX009 (ip), vehicle: Klucel (hydroxypropylcellulose) (HPC) 94 % of control | dose: 100.0 mg/kg/injection, schedule: Q01DX009 (ip), vehicle: Klucel (hydroxypropylcellulose) (HPC) 101 % of control | [4] 96 % of control | [5] 100 % of control
